Test results from PubChem BioAssay AID248 (DTP/NCI, 2004).
Toxic doses and inconclusive results are not listed.

System: L1210 leukemia ip in BDF1 mice, survival T/C
Assay: NCI In Vivo Anticancer Drug Screen. Data for tumor model L1210 Leukemia (intraperitoneal) in B6D2F1 (BDF1) mice
Conditions: endpoint: mean survival time, higher = longer survival
In short: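 Transplanted-tumor mice were given test agent; controls received vehicle only. Survival readings from the two groups were divided (treated over control).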

[1] = dose: 100.0 mg/kg/injection, schedule: Q01DX001 (ip), vehicle: saline
[2] = dose: 400.0 mg/kg/injection, schedule: Q01DX001 (ip), vehicle: saline

Question: How did the T/C (dose: 50.0 mg/kg/injection, schedule: Q04DX003 (ip), vehicle: saline with Tween-80) turn out when `NC(=O)c1c(Br)n(C2OC(CO)C(O)C2O)c2ncnc(N)c12` (configuration not stated) was run?
Answer: The T/C was 102 % of control.

Question: And the T/C [1]?
Answer: Its T/C is 121 % of control.

Question: What about the T/C (dose: 178.0 mg/kg/injection, schedule: Q01DX001 (ip), vehicle: saline) of the same compound?
Answer: The T/C was 111 % of control.

Question: And the T/C (dose: 267.0 mg/kg/injection, schedule: Q01DX001 (ip), vehicle: saline)?
Answer: Its T/C is 109 % of control.

Question: What about the T/C [2] of the same compound?
Answer: The T/C was 120 % of control.

Question: What about the T/C (dose: 400.0 mg/kg/injection, schedule: Q04DX003 (ip), vehicle: saline with Tween-80) of the same compound?
Answer: Its T/C is 150 % of control.

Question: What does the source list for `Oc1ccc(C2=CSC3=NCCN23)cc1`?
Answer: T/C (dose: 5.0 mg/kg/injection, schedule: Q01DX001 (ip), vehicle: saline): 94 % of control; T/C (dose: 10.0 mg/kg/injection, schedule: Q01DX001 (ip), vehicle: saline): 93 % of control; T/C (dose: 20.0 mg/kg/injection, schedule: Q01DX001 (ip), vehicle: saline): 93 % of control; T/C (dose: 40.0 mg/kg/injection, schedule: Q01DX001 (ip), vehicle: saline): 96 % of control; T/C (dose: 80.0 mg/kg/injection, schedule: Q01DX001 (ip), vehicle: saline): 104 % of control

Question: How did the T/C [1] turn out when `CCCCOB(OCCCC)c1ccc(B(OCCCC)OCCCC)cc1` was run?
Answer: The T/C was 97 % of control.

Question: And the T/C (dose: 200.0 mg/kg/injection, schedule: Q01DX001 (ip), vehicle: saline)?
Answer: The T/C was 101 % of control.

Question: And the T/C [2]?
Answer: The T/C was 89 % of control.

Question: Which T/C (dose: 8.0 mg/kg/injection, schedule: Q01DX009 (ip), vehicle: carboxymethylcellulose (CMC)) does the source give for `CC(=O)Nc1ccc(C(N)=O)cn1` here?
Answer: Its T/C is 98 % of control.

Question: And the T/C (dose: 16.0 mg/kg/injection, schedule: Q01DX009 (ip), vehicle: carboxymethylcellulose (CMC))?
Answer: Its T/C is 98 % of control.

Question: What about the T/C (dose: 32.0 mg/kg/injection, schedule: Q01DX009 (ip), vehicle: carboxymethylcellulose (CMC)) of the same compound?
Answer: Its T/C is 98 % of control.

Question: And the T/C (dose: 64.0 mg/kg/injection, schedule: Q01DX001 (ip), vehicle: carboxymethylcellulose (CMC))?
Answer: Its T/C is 94 % of control.

Question: And the T/C (dose: 64.0 mg/kg/injection, schedule: Q01DX009 (ip), vehicle: carboxymethylcellulose (CMC))?
Answer: The T/C was 118 % of control.

Question: And the T/C (dose: 128.0 mg/kg/injection, schedule: Q01DX001 (ip), vehicle: carboxymethylcellulose (CMC))?
Answer: The T/C was 92 % of control.

Question: What about the T/C (dose: 256.0 mg/kg/injection, schedule: Q01DX001 (ip), vehicle: carboxymethylcellulose (CMC)) of the same compound?
Answer: The T/C was 97 % of control.

Question: What about the T/C (dose: 512.0 mg/kg/injection, schedule: Q01DX001 (ip), vehicle: carboxymethylcellulose (CMC)) of the same compound?
Answer: The T/C was 92 % of control.
